Assay [1] deals with WSU-DLCL2 xenografts (CD20+). Put plainly: In vivo antitumor efficacy against WSU-DLCL2 xenografts, obinutuzumab study (FIG. 1-2). Also on record: species or system human. The settings on record: for median tumor volume: venetoclax 100 mg/kg, RG6146 30 mg/kg; for TGI % (tumor growth inhibition compared to control) / npTCR (non-parametric Treatment to Control Ratio) / Tumor free mice: Day 36; for TGI % (tumor growth inhibition compared to control): obinutuzumab 10 mg/kg once weekly; for Tumor free mice: tumor free mice / mice in group. How it is done: (§1) Antibody buffer included histidine. Antibody solution was diluted appropriately in buffer from stock prior injections. BET inhibitor RG6146 was provided as powder from Roche, Basel, Switzerland and resuspended prior to use. Bcl-2 inhibitor GDC-0199 was provided by Genentech, South San Francisco, USA and formulated prior to use.
(§2) The original WSU-DLCL2 human B cell NHL cell line (DLBCL) was purchased from DSMZ (Braunschweig, Germany). Expansion of tumor cells for the transplantation was done by the TAP CompacT CellBase Cell Culture Roboter according to the protocol. Tumor cell line was routinely cultured in RPMI 1640 medium, FCS 10% and L-Glutamin 2 mM at 37° C. in a water-saturated atmosphere at 5% CO2. Culture passage was performed with trypsin/EDTA 1× splitting twice/week and passage 3 used for transplantation.
(§3) Female SCID beige mice, age 6-7 weeks at arrival, maintained under specific-pathogen-free condition with daily cycles of 12 h light/12 h darkness according to committed guidelines. Experimental study protocol was reviewed and approved by local government. After arrival animals were maintained in animal facility for one week to get accustomed to new environment and for observation. Continuous health monitoring was carried out on regular basis. Diet food and autoclaved water were provided ad libitum.
(§4) Animals were controlled daily for clinical symptoms and detection of adverse effects. For monitoring throughout the experiment body weight of animals was documented.
CD20 antibody obinutuzumab was administered as single agent and in combination at 10 mg/kg ip once weekly on days 10, 17, 24 and 31. The corresponding vehicle was administered on the same days. BET inhibitor RG6146 ip treatment at 30 mg/kg was done as single agent and in combination on days 10-18, 21-25 and 28-32. Finally, Bcl-2 inhibitor venetoclax (GDC-0199) was given orally at 100 mg/kg on days 10-18, 21-25 and 28-32 as single agent and in combination.
For the study shown in FIG. 1, WSU-DLCL2 human Diffuse Large B-cell Lymphoma (DLBCL) cells (CD20+) were s.c. inoculated with Matrigel onto female SCID beige mice. Tumor bearing mice were randomized 10 days later to the indicated study groups and compound treatment initiated. Tumor bearing animals were treated with vehicle control, with the BET inhibitor RG6146 at 30 mg/kg, with the anti-CD20 antibody obinutuzumab at 10 mg/kg or with Bcl-2 inhibitor venetoclax (GDC-0199) at 100 mg/kg as single agent. Additionally, three groups were treated with a dual combination of either RG6146 and venetoclax, or RG6146 and obinutuzumab or obinutuzumab and venetoclax. Finally, one study group received the triple combination of BET inhibitor RG6146, CD20 antibody obinutuzumab and Bcl-2 inhibitor venetoclax (GDC-0199). […] In constrast to this, the respective double combination regimens reached a tumor regrowth after about 20 days.

The test system of assay [2] is WSU-DLCL2 xenografts (CD20+). Put plainly: In vivo antitumor efficacy against WSU-DLCL2 xenografts, rituximab study (FIG. 3). Also on record: species or system human. To be noted: for median tumor volume / npTCR (non-parametric Treatment to Control Ratio) / Tumor free mice: rituximab 10 mg/kg; for median tumor volume: venetoclax 100 mg/kg, RG6146 30 mg/kg; for TGI % (tumor growth inhibition): rituximab 10 mg/kg once weekly, venetoclax 100 mg/kg po and RG6146 30 mg/kg ip days 11-17; for npTCR (non-parametric Treatment to Control Ratio) / Tumor free mice: venetoclax 100 mg/kg po, RG6146 30 mg/kg ip; for Tumor free mice: tumor free mice / mice in group. The protocol:
as §1, §2, §3, §4
The corresponding vehicle was administered on the same days. BET inhibitor RG6146 ip treatment at 30 mg/kg was done as single agent and in combination on days 11-17. Finally, bcl-2 inhibitor venetoclax (GDC-0199) was given orally at 100 mg/kg on days 11-17 as single agent and in combination.

Where [3] appears, read: Day 10 (randomisation, start of treatment), s.c. xenograft in female SCID beige mice, obinutuzumab 10 mg/kg.
Setting [4] is: Day 14, female SCID beige mice, obinutuzumab 10 mg/kg.
Where [5] appears, read: Day 17, female SCID beige mice, obinutuzumab 10 mg/kg.
Where [6] appears, read: Day 21, female SCID beige mice, obinutuzumab 10 mg/kg.
Where [7] appears, read: Day 24, female SCID beige mice, obinutuzumab 10 mg/kg.
The mark [8] stands for this setting: Day 28, female SCID beige mice, obinutuzumab 10 mg/kg.
The mark [9] stands for this setting: Day 31, female SCID beige mice, obinutuzumab 10 mg/kg.
Where [10] appears, read: Day 36 (treatment ended day 32), female SCID beige mice, obinutuzumab 10 mg/kg.
The mark [11] stands for this setting: female SCID beige mice, venetoclax 100 mg/kg po, RG6146 30 mg/kg ip.
Where [12] appears, read: obinutuzumab 10 mg/kg, venetoclax 100 mg/kg po, RG6146 30 mg/kg ip.
Where [13] appears, read: Day 11, s.c. xenograft in female SCID beige mice.

As to `Cc1sc2c(c1C)C(c1ccc(Cl)cc1)=N[C@@H](CC(=O)NCCCN1CCN(C)CC1)c1nnc(C)n1-2` [RG6146, 2-[(S)-4-(4-Chloro-phenyl)-2,3,9-trimethyl-6H-1-thia-5,7,8,9a-tetraaza-cyclopenta[e]azulen-6-yl]-N-[3-(4-methyl-piperazin-1-yl)-propyl]-acetamide], the median tumor volume stood at 137 mm^3 in assay [1] (setting [3]); 200 mm^3 in assay [1] (setting [4]); 185 mm^3 in assay [1] (setting [5]); 198 mm^3 in assay [1] (setting [6]); 387 mm^3 in assay [1] (setting [7]); 441 mm^3 in assay [1] (setting [8]). In addition, the median tumor volume stood at 489 mm^3 in assay [1] (setting [9]); 962 mm^3 in assay [1] (setting [10]); 134 mm^3 in assay [2] (setting [13]); 161 mm^3 in assay [2] (Day 14, female SCID beige mice); 270 mm^3 in assay [2] (Day 18, female SCID beige mice); 245 mm^3 in assay [2] (Day 21, female SCID beige mice). Moreover, the median tumor volume in assay [2] (Day 25, female SCID beige mice) is on record as 453 mm^3; in assay [2] (Day 28, female SCID beige mice) it was 550 mm^3. The “TGI % (tumor growth inhibition compared to control)” value in assay [1] (setting [11]) is reported as 46%. Moreover, the “npTCR (non-parametric Treatment to Control Ratio)” value in assay [1] (setting [12]) amounted to 0.50; in assay [2] (Day 28), 0.71. Besides, the Tumor free mice in assay [1] (setting [12]) and in assay [2] (Day 28) was 0/9 each time. Moreover, the “TGI % (tumor growth inhibition)” value in assay [2] (Day 28, female SCID beige mice) is listed as 30%.
As for `CC1(C)CCC(CN2CCN(c3ccc(C(=O)NS(=O)(=O)c4ccc(NCC5CCOCC5)c([N+](=O)[O-])c4)c(Oc4cnc5[nH]ccc5c4)c3)CC2)=C(c2ccc(Cl)cc2)C1` [venetoclax, 4-(4-{[2-(4-chlorophenyl)-4,4-dimethylcyclohex-1-en-1-yl]methyl}piperazin-1-yl)-N-({3-nitro-4-[(tetrahydro-2H-pyran-4-ylmethyl)amino]phenyl}sulfonyl)-2-(1H-pyrrolo[2,3-b]pyridin-5-yloxy)benzamide], the median tumor volume in assay [1] (setting [3]) is on record as 137 mm^3; in assay [1] (setting [4]), 202 mm^3; in assay [1] (setting [5]), 226 mm^3; in assay [1] (setting [6]) it was 212 mm^3; in assay [1] (setting [7]), 337 mm^3; in assay [1] (setting [8]) it was 494 mm^3. Further, the median tumor volume was 565 mm^3 in assay [1] (setting [9]); 906 mm^3 in assay [1] (setting [10]); 136 mm^3 in assay [2] (setting [13]); 162 mm^3 in assay [2] (Day 14, female SCID beige mice); 267 mm^3 in assay [2] (Day 18, female SCID beige mice); 388 mm^3 in assay [2] (Day 21, female SCID beige mice). Besides, the median tumor volume in assay [2] (Day 25, female SCID beige mice) amounted to 497 mm^3; in assay [2] (Day 28, female SCID beige mice), 554 mm^3. Moreover, in assay [1] (setting [11]), the “TGI % (tumor growth inhibition compared to control)” value was 49%. The “npTCR (non-parametric Treatment to Control Ratio)” value in assay [1] (setting [12]) is 0.53; in assay [2] (Day 28), 0.66. Besides, the Tumor free mice in assay [1] (setting [12]) and in assay [2] (Day 28) was 0/10 throughout. The “TGI % (tumor growth inhibition)” value in assay [2] (Day 28, female SCID beige mice) was 34%.
On to “obinutuzumab: Type II anti-CD20 antibody, synonymous for GA101, formerly known as afutuzumab”, for which the median tumor volume in assay [1] (setting [3]) is on record as 136 mm^3; in assay [1] (setting [4]), 131 mm^3; in assay [1] (setting [5]), 112 mm^3; in assay [1] (setting [6]) it was 110 mm^3; in assay [1] (setting [7]), 111 mm^3; in assay [1] (setting [8]), 124 mm^3. Moreover, the median tumor volume in assay [1] (setting [9]) is 132 mm^3; in assay [1] (setting [10]), 382 mm^3; in assay [1] (Day 39 (follow-up after treatment), female SCID beige mice, obinutuzumab 10 mg/kg) it was 405 mm^3; in assay [1] (Day 43 (follow-up after treatment), female SCID beige mice, obinutuzumab 10 mg/kg), 700 mm^3; in assay [1] (Day 46 (follow-up after treatment), female SCID beige mice, obinutuzumab 10 mg/kg), 713 mm^3; in assay [1] (Day 50 (follow-up after treatment), female SCID beige mice, obinutuzumab 10 mg/kg), 758 mm^3. In addition, in assay [1] (setting [11]), the “TGI % (tumor growth inhibition compared to control)” value is recorded as 84%. Besides, the “npTCR (non-parametric Treatment to Control Ratio)” value in assay [1] (setting [12]) came out at 0.20. Besides, in assay [1] (setting [12]), the Tumor free mice is 0/10. Moreover, the “Tumor growth delay (Days): time until relative tumor volume reached again 100% (100% at beginning, Day 10)” value in assay [1] (female SCID beige mice, obinutuzumab 10 mg/kg, venetoclax 100 mg/kg po, RG6146 30 mg/kg ip) was 21 days.
